As a reminder, the EC50 is the concentration giving half of the maximal effect. Usually CC50 stands for the concentration giving 50% cytotoxicity.

Results on 7 compounds are retold here after ChEMBL document CHEMBL5120865, “Exploration of 6-methyl-7-(Hetero)Aryl-7-Deazapurine ribonucleosides as antileishmanial agents” (Eur J Med Chem, 2022).

Series [1] concerns Leishmania infantum. The experiment in a line: Antileishmanial activity against intracellular Leishmania infantum MHOM/MA(BE)/67 ITMAP263 amastigotes infected in Swiss mouse peritoneal macrophage assessed as inhibition of parasite growth measured after 5 days by geimsa staining based microscopic analysis. It is filed as functional, organism-based. The following applies: MHOM/MA(BE)/67 ITMAP263, Peritoneal macrophage, 120 h.

Series [2] in a line: Cytotoxicity against Swiss mouse peritoneal macrophages assessed as reduction in cell viability measured after 5 days by microscopic analysis. The format is toxicity, cell-based, Peritoneal macrophage. The following applies: time 5 day.
The nature of series [3]: Selectivity index, ratio of CC50 for Cytotoxicity against Swiss mouse peritoneal macrophages to EC50 for intracellular Leishmania infantum MHOM/MA(BE)/67 ITMAP263 amastigotes infected in Swiss mouse peritoneal macrophages. The following applies: read-out: Ratio CC50/EC50. It is filed as toxicity, cell-based.
The nature of series [4]: Cytotoxicity against human MRC5 cells assessed as reduction in cell viability incubated for 3 days by resazurin dye based fluorescence analysis. The format is toxicity. The conditions noted are these: time 3 day.
A further series has as its system Trypanosoma cruzi. Briefly: Antitrypanosomal activity against nifurtimox-sensitive Tulahuen CL2 amastigotes expressing beta galactosidase infected in human MRC5 cells assessed as inhibition of parasite growth using chlorophenol red beta-D-galactopyranoside as substrate and measured after 7 days by spectrophotometric analysis. The format is functional, organism-based. The conditions noted are these: Tulahuen CL2, MRC5, 168 h, read-out: EC50.

A short description of series [5]: Selectivity index, ratio of CC50 for cytotoxicity against human MRC5 cells to EC50 for Trypanosoma cruzi Tulahuen CL2 amastigotes expressing beta galactosidase infected in human MRC5 cells. The following applies: read-out: Ratio CC50/EC50. It is filed as toxicity, cell-based.
The test system of series [6] is Leishmania infantum. The experiment in a line: Antileishmanial activity against intracellular Leishmania infantum MHOM/MA(BE)/67 amastigotes infected in golden hamster assessed as reduction of amastigote burdens in bone marrow at 40 mg/kg, po SID for 5 days by geimsa staining based microscopic analysis. The format is functional. On the set-up: scale not given: the % may be the effect or the level left. The following applies: time 5 day.

Series [7] has as its system Leishmania infantum. Briefly: Antileishmanial activity against intracellular Leishmania infantum MHOM/MA(BE)/67 amastigotes infected in golden hamster assessed as reduction of amastigote burdens in liver at 40 mg/kg, po SID for 5 days by geimsa staining based microscopic analysis. It is filed as functional. Also on record: scale not given: the % may be the effect or the level left. The conditions noted are these: time 5 day.

For series [8], the system named is Leishmania infantum. Briefly: Antileishmanial activity against intracellular Leishmania infantum MHOM/MA(BE)/67 amastigotes infected in golden hamster assessed as reduction of amastigote burdens in spleen at 40 mg/kg, po SID for 5 days by geimsa staining based microscopic analysis. It is filed as functional. Also on record: scale not given: the % may be the effect or the level left. The following applies: time 5 day.

In the case of `Cc1ncnc2c1c(-c1nccs1)cn2[C@@H]1O[C@H](CO)[C@@H](O)[C@H]1O`, the results for the EC50 in the series on Leishmania infantum [1] and with Trypanosoma cruzi were 2070 nM and 660 nM, respectively. Also, the CC50 at 120 h in series [2] amounted to 32000 nM. Moreover, the selectivity ratio stood at 15.5 in series [3] and 9.2 in [5]. The CC50 at 72 h in series [4] was 6060 nM.
For the compound `CCCCCCCCCCCCCCCCOP(=O)([O-])OCC[N+](C)(C)C` [MILTEFOSINE], the EC50 with Leishmania infantum [1] is 8300 nM. In addition, the Activity in the series with Leishmania infantum [6] is on record as 93.1%; in the series on Leishmania infantum [7], 94%; in the series with Leishmania infantum [8], 99.2%.
As to `Cc1ncnc2c1c(-c1ccccn1)cn2[C@@H]1O[C@H](CO)[C@@H](O)[C@H]1O`, the EC50 came to 2300 nM in the series on Leishmania infantum [1] and 1600 nM with Trypanosoma cruzi. In addition, the CC50 at 120 h in series [2] is greater than 64000 nM. Also, the selectivity ratio in series [3] was greater than 27; in series [5], greater than 39. The CC50 at 72 h in [4] is greater than 64000 nM.
On to `Cc1ncnc2c1c(-c1ccc[nH]1)cn2[C@@H]1O[C@H](CO)[C@@H](O)[C@H]1O`, for which the values for the EC50 in the series on Leishmania infantum [1] and with Trypanosoma cruzi were 350 nM and 680 nM, respectively. For the same compound, the CC50 at 120 h in [2] was determined as 32000 nM. In addition, the selectivity ratio is 91.4 in series [3] and 19 in series [5]. In addition, the CC50 at 72 h in series [4] was 12900 nM.
In the case of `Cc1ncnc2c1c(-c1ccc(Cl)cn1)cn2[C@@H]1O[C@H](CO)[C@@H](O)[C@H]1O`, the EC50 was found to be 400 nM in the series with Leishmania infantum [1] and 490 nM with Trypanosoma cruzi. Further, the CC50 at 120 h in [2] is greater than 64000 nM. The selectivity ratio in [3] was greater than 160; in series [5], 53. Further, in series [4], the CC50 at 72 h was determined as 26300 nM.
For `Cc1ncnc2c1c(-c1cccc3c1N=CC3)cn2[C@@H]1O[C@H](CO)[C@@H](O)[C@H]1O`, the figures for the EC50 in the series with Leishmania infantum [1] and in the series on Trypanosoma cruzi were 2100 nM and 3300 nM, respectively. The CC50 at 120 h in series [2] is greater than 64000 nM. The selectivity ratio in [3] is greater than 30; in series [5] it was greater than 19. In [4], the CC50 at 72 h was greater than 64000 nM.
With `Cc1ncnc2c1c(-c1cc3ccccc3[nH]1)cn2[C@@H]1O[C@H](CO)[C@@H](O)[C@H]1O`, the EC50 in the series with Leishmania infantum [1] is 1700 nM; in the series on Trypanosoma cruzi, 620 nM. Also, the CC50 at 120 h in [2] is greater than 64000 nM. The values for the selectivity ratio in [3] and in series [5] were greater than 36 and 24, respectively. The CC50 at 72 h in series [4] amounted to 14800 nM.
